Where two headings read alike, the source gives them in different places.
Assay: Tissue half-life (t1/2) and Cmax in plasma, brain, kidney and liver after oral administration to CD-1 mice
Type: in vivo, mouse
Settings: male, mouse
Method: In vivo studies were conducted to observe the effect of the compounds of the invention in the subject animal. Male CD-1 mice, body weight of 20 grams at arrival, were used in these studies. Mice were given 30 mg/kg of compound in HPMC/Tween solution or suspension via oral gavage. Plasma, brain, and liver samples were collected at time periods of 1, 2, 4, 8, and 24 hours post dosing. One mouse was used per time point. Thus, a total of 5 mice were used for each compound tested. For sample collection, mice were euthanized with CO2. Blood samples were taken by cardiac puncture and kept on ice. Brain and liver samples were collected immediately after bleeding and the samples were kept on dry ice. For calculation of tissue half-lives (t1/2s), the terminal rate constant k was estimated by the absolute value of the slope of a log-linear regression of the terminal phase of the tissue concentration-time profile. The tissue half-life t1/2 is ln(2)/k.
The following table includes t1/2 data for plasma, brain, kidney, and liver obtained after oral administration.
Tissue Half-Life Data for Various Quinazolinone Compounds (PO)

[1] = brain t1/2, 30 mg/kg oral gavage (PO), read-out: Half-Lives (h) Brain (converted)
[2] = kidney t1/2, 30 mg/kg oral gavage (PO), read-out: Half-Lives (h) Kidney (converted)
[3] = liver t1/2, 30 mg/kg oral gavage (PO), read-out: Half-Lives (h) Liver (converted)
[4] = plasma t1/2, 30 mg/kg oral gavage (PO), read-out: Half-Lives (h) Plasma (converted)

SMILES	half-life [1] [h]	half-life [2] [h]	half-life [3] [h]	half-life [4] [h]
COc1ccc(CCn2c(-c3cccnc3)nc3cc(NC(=N[C@H]4C[C@H]5C[C@@H]([C@@H]4C)C5(C)C)N4CC(=O)N[C@@H](C)C4)ccc3c2=O)c(F)c1 [Example 216, (3S)-N-{3-[2-(2-fluoro-4-methoxyphenyl)ethyl]-4-oxo-2-pyridin-3-yl-3,4-dihydroquinazolin-7-yl}-3-methyl-5-oxo-N′-[(1S,2S,3S,5R)-2,6,6-trimethylbicyclo[3.1.1]hept-3-yl]piperazine-1-carboximidamide]	14	2.7	2.1	1.9
C[C@@H]1[C@@H](N=C(Nc2ccc3c(=O)n(CCc4ccc(F)cc4)c(-c4cnccn4)nc3c2)N2CC(=O)N[C@@H](C)C2)C[C@H]2C[C@@H]1C2(C)C [Example 218, (3S)-N-{3-[2-(4-fluorophenyl)ethyl]-4-oxo-2-pyrazin-2-yl-3,4-dihydroquinazolin-7-yl}-3-methyl-5-oxo-N′-[(1S,2S,3S,5R)-2,6,6-trimethylbicyclo[3.1.1]hept-3-yl]piperazine-1-carboximidamide]	–	–	3.9	2.2
COc1ccc(CCn2c(-c3cccnc3)nc3cc(NC(=N[C@H]4C[C@H]5C[C@@H]([C@@H]4C)C5(C)C)N4CCN[C@@H](C(F)F)C4)ccc3c2=O)c(F)c1 [Example 220, (3R)-3-(difluoromethyl)-N-{3-[2-(2-fluoro-4-methoxyphenyl)ethyl]-4-oxo-2-pyridin-3-yl-3,4-dihydroquinazolin-7-yl}-N′-[(1S,2S,3S,5R)-2,6,6-trimethylbicyclo[3.1.1]hept-3-yl]piperazine-1-carboximidamide]	3.1	–	2.5	2.1
COc1ccc(CCn2c(N3CCOCC3)nc3cc(NC(=N[C@H]4C[C@H]5C[C@@H]([C@@H]4C)C5(C)C)N4CC(=O)N[C@@H](C)C4)ccc3c2=O)c(F)c1 [Example 221, (3S)-N-{3-[2-(2-fluoro-4-methoxyphenyl)ethyl]-2-morpholin-4-yl-4-oxo-3,4-dihydroquinazolin-7-yl}-3-methyl-5-oxo-N′-[(1S,2S,3S,5R)-2,6,6-trimethylbicyclo[3.1.1]hept-3-yl]piperazine-1-carboximidamide]	6.9	–	2.9	2.9
C[C@@H]1[C@@H](N=C(Nc2ccc3c(=O)n(CCc4ccc(Cl)cc4)c(-c4cnccn4)nc3c2)N2CC(=O)N[C@@H](C)C2)C[C@H]2C[C@@H]1C2(C)C [Example 222, (3S)-N-{3-[2-(4-chlorophenyl)ethyl]-4-oxo-2-pyrazin-2-yl-3,4-dihydroquinazolin-7-yl}-3-methyl-5-oxo-N′-[(1S,2S,3S,5R)-2,6,6-trimethylbicyclo[3.1.1]hept-3-yl]piperazine-1-carboximidamide]	8	–	2.7	1.1
COc1ccc(CCn2c(NC3CC3)nc3cc(NC(=N[C@H]4C[C@H]5C[C@@H]([C@@H]4C)C5(C)C)N4CC(=O)N[C@@H](C)C4)ccc3c2=O)c(F)c1 [Example 224, (3S)-N-{2-(cyclopropylamino)-3-[2-(2-fluoro-4-methoxyphenyl)ethyl]-4-oxo-3,4-dihydroquinazolin-7-yl}-3-methyl-5-oxo-N′-[(1S,2S,3S,5R)-2,6,6-trimethylbicyclo[3.1.1]hept-3-yl]piperazine-1-carboximidamide]	10	–	3.1	3
C[C@@H]1[C@@H](N=C(Nc2ccc3c(=O)n(CCc4ccc(Br)cc4)c(-c4cccnc4)nc3c2)N2CCN[C@@H](C(F)F)C2)C[C@H]2C[C@@H]1C2(C)C [Example 227, (3R)-N-{3-[2-(4-bromophenyl)ethyl]-4-oxo-2-pyridin-3-yl-3,4-dihydroquinazolin-7-yl}-3-(difluoromethyl)-N′-[(1S,2S,3S,5R)-2,6,6-trimethylbicyclo[3.1.1]hept-3-yl]piperazine-1-carboximidamide]	–	–	9.4	3.9
C[C@@H]1[C@@H](N=C(Nc2ccc3c(=O)n(CCc4ccc(Cl)cc4Cl)c(-c4cnccn4)nc3c2)N2CCN[C@@H](C(F)F)C2)C[C@H]2C[C@@H]1C2(C)C [Example 228, (3R)-N-{3-[2-(2,4-dichlorophenyl)ethyl]-4-oxo-2-pyrazin-2-yl-3,4-dihydroquinazolin-7-yl}-3-(difluoromethyl)-N′-[(1S,2S,3S,5R)-2,6,6-trimethylbicyclo[3.1.1]hept-3-yl]piperazine-1-carboximidamide]	–	–	9.1	–
C[C@@H]1C(/N=C(/Nc2ccc3c(=O)n(CCc4ccc(Cl)cc4Cl)c(-c4cnccn4)nc3c2)N2CC(=O)N[C@@H](C)C2)C[C@H]2C[C@@H]1C2(C)C (stereo partly drawn) [Example 229, (3S)-N-{3-[2-(2,4-dichlorophenyl)ethyl]-4-oxo-2-pyrazin-2-yl-3,4-dihydroquinazolin-7-yl}-3-methyl-5-oxo-N′-[(1S,2S3S,5R)-2,6,6-trimethylbicyclo[3.1.1]hept-3-yl]piperazine-1-carboximidamide]	13	–	16	9
C[C@@H]1[C@@H](N=C(Nc2ccc3c(=O)n(CCc4ccc(Br)cc4)c(-c4cccnc4)nc3c2)N2CC(=O)N[C@@H](C)C2)C[C@H]2C[C@@H]1C2(C)C [Example 230, (3S)-N-{3-[2-(4-bromophenyl)ethyl]-4-oxo-2-pyridin-3-yl-3,4-dihydroquinazolin-7-yl}-3-methyl-5-oxo-N′-[(1S,2S,3S,5R)-2,6,6-trimethylbicyclo[3.1.1]hept-3-yl]piperazine-1-carboximidamide]	–	–	5.9	3.1
C[C@@H]1[C@@H](N=C(Nc2ccc3c(=O)n(CCc4ccc(Br)cc4)c(-c4cnccn4)nc3c2)N2CCN[C@@H](C(F)F)C2)C[C@H]2C[C@@H]1C2(C)C [Example 231, (3R)-N-{3-[2-(4bromophenyl)ethyl]-4-oxo-2-pyrazin-2-yl-3,4-dihydroquinazolin-7-yl]-3-(difluoromethyl)-N′-[(1S,2S,3S,5R)-2,6,6-trimethylbicyclo[3.1.1]hept-3-yl]piperazine-1-carboximidamide]	15	–	4.6	2.6
C[C@@H]1[C@@H](N=C(Nc2ccc3c(=O)n(CCc4ccc(Br)cc4F)c(-c4cnccn4)nc3c2)N2CCN[C@@H](C(F)F)C2)C[C@H]2C[C@@H]1C2(C)C [Example 233, (3R)-N-{3-[2-(4-bromo-2-fluorophenyl)ethyl]-4-oxo-2-pyrazin-2-yl-3,4-dihydroquinazolin-7-yl}-3-(difluoromethyl)-N′-[(1S,2S,3S,5R)-2,6,6-trimethylbicyclo[3.1.1]hept-3-yl]piperazine-1-carboximidamide]	15	–	44	6.4
COc1ccc(CCn2c(-c3cnccn3)nc3cc(NC(=N[C@H]4C[C@H]5C[C@@H]([C@@H]4C)C5(C)C)N4CCN[C@@H](C(F)F)C4)ccc3c2=O)c(F)c1 [Example 234, (3R)-3-(difluoromethyl)-N-{3-[2-(2-fluoro-4-methoxyphenyl)ethyl]-4-oxo-2-pyrazin-2-yl-3,4-dihydroquinazolin-7-yl}-N′-[(1S,2S,3S,5R)-2,6,6-trimethylbicyclo[3.1.1]hept-3-yl]piperazine-1-carboximidamide]	2.6	–	4.9	3.5
C[C@@H]1[C@@H](N=C(Nc2ccc3c(=O)n(CCc4ccc(Cl)cc4)c(-c4cnccn4)nc3c2)N2CCN[C@@H](C(F)F)C2)C[C@H]2C[C@@H]1C2(C)C [Example 235, (3R)-N-{3-[2-(4-chlorophenyl)ethyl]-4-oxo-2-pyrazin-2-yl-3,4-dihydroquinazolin-7-yl}-3-(difluoromethyl)-N′-[(1 S,2S,3S,5R)-2,6,6-trimethylbicyclo[3.1.1]hept-3-yl]piperazine-1-carboximidamide]	6.1	–	5.6	4.7
C[C@@H]1[C@@H](N=C(Nc2ccc3c(=O)n(CCc4ccc(Cl)cc4)c(-c4c[nH]c5ccccc45)nc3c2)N2CC(=O)N[C@@H](C)C2)C[C@H]2C[C@@H]1C2(C)C [Example 236, (3S)-N-[3-[2-(4-chlorophenyl)ethyl]-2-(1H-indol-3-yl)-4-oxo-3,4-dihydroquinazolin-7-yl]-3-methyl-5-oxo-N′-[(1S,2S,3S,5R)-2,6,6-trimethylbicyclo[3.1.1]hept-3-yl]piperazine-1-carboximidamide]	–	–	4.2	7.7
COc1ccc(CCn2c(CN3CCN(C)CC3)nc3cc(NC(=N[C@H]4C[C@H]5C[C@@H]([C@@H]4C)C5(C)C)N4CC(=O)N[C@@H](C)C4)ccc3c2=O)c(F)c1 [Example 239, (3S)-N-{3-[2-(2-fluoro-4-methoxyphenyl)ethyl]-2-[(4-methylpiperazin-1-yl)methyl]-4-oxo-3,4-dihydroquinazolin-7-yl}-3-methyl-5-oxo-N-[(1S,2S,3S,5R)-2,6,6-trimethylbicyclo[3.1.1]hept-3-yl]piperazine-1-carboximidamide]	3.6	–	–	4.5
COc1ccc(CCn2c(-c3cccnc3)nc3cc(NC(=N[C@H]4C[C@H]5C[C@@H]([C@@H]4C)C5(C)C)N4CCN(O)[C@@H](C)C4)ccc3c2=O)c(F)c1 [Example 245, (3S)-N-{3[2(2-fluoro-4-methoxyphenyl)ethyl]-4-oxo-2-pyridin-3-yl-3,4-dihydroquinazolin-7-yl}-4-hydroxy-3-methyl-N′-[(1S,2S,3S,5R)-2,6,6-trimethylbicyclo[3.1.1]hept-3-yl]piperazine-1-carboximidamide]	3.1	1.7	5.2	2.2

Source: US7368453B2, “Quinazolinone compounds with reduced bioaccumulation” (Chiron Corporation, priority 2003, dated 2008)
